According to ChEMBL document CHEMBL5346926, “Optimization of triazolo[4,5-d]pyrimidines towards human CC chemokine receptor 7 (CCR7) antagonists” (Eur J Med Chem, 2023):

What was measured:
[1] = target: T1, C-C chemokine receptor type 7 (Homo sapiens, UniProt P32248); assay: Antagonist activity at CCR7 in human CD4 cells by fluorescence based calcium mobilization assay; assay type: functional, cell-based, CD4+ve Th
T1 sequence (P32248 whole entry): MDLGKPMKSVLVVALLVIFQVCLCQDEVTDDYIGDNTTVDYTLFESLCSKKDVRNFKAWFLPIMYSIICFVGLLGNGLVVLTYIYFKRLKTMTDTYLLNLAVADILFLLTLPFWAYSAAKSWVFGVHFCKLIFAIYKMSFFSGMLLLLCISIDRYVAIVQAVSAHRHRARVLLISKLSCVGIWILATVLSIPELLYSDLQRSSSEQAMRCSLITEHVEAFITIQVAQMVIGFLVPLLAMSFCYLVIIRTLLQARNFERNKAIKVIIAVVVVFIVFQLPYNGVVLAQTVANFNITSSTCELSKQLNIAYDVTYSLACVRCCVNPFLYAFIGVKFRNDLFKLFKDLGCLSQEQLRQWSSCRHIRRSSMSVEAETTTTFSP

[2] = target: T2, C-X-C chemokine receptor type 2 (Homo sapiens, UniProt P25025); assay: Antagonist activity at CXCR2 in human CD4 cells by fluorescence based calcium mobilization assay; assay type: functional, cell-based, CD4+ve Th
T2 sequence (P25025 whole entry): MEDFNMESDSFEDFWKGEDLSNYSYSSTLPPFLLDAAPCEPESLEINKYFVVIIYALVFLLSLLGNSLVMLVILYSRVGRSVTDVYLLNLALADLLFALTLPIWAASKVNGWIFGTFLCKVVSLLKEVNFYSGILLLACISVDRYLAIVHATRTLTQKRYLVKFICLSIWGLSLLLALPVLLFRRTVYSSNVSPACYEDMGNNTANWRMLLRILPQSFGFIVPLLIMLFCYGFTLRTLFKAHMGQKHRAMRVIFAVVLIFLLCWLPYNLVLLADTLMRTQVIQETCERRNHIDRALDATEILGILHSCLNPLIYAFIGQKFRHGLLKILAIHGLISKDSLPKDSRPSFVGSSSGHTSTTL

[3] = target: T1, C-C chemokine receptor type 7; assay: Competitive binding affinity to CCR7 in human U87 cells preincubated for 15 mins followed by CCL19 AF647 addition measured after 30 mins by flow cytometric analysis; assay type: cell-based

Row | IC50 [1] [µM] | IC50 [2] [µM] | IC50 [3] [µM] | SMILES
1 | > 30 | – | – | C[C@H](CO)Nc1nc(SCc2cccc(F)c2F)nc2nc(N)sc12
2 | > 30 | – | – | C[C@H](CO)Nc1nc(SCc2cccc(F)c2F)nc2sccc12
3 | > 30 | – | – | C[C@H](CO)Nc1nc(SCc2cccc(F)c2F)nc2cccnc12
4 | > 30 | – | – | C[C@H](CO)Nc1nc(SCc2cccc(F)c2F)nc2ccsc12
5 | > 30 | – | – | C[C@H](CO)Nc1nc(SCc2cccc(F)c2F)nc2cc[nH]c12
6 | > 30 | – | – | C[C@H](CO)Nc1nc(SCc2cccc(F)c2F)nc2cnccc12
7 | > 30 | – | – | C[C@H](CO)Nc1nc(SCc2cccc(F)c2F)nc2c1CNCC2
8 | > 30 | 2.98 | – | Fc1cccc(CSc2nc(NCC3CC3)c3nn[nH]c3n2)c1F
9 | 1.68 | – | – | C[C@H](CO)Nc1nc(SCCC2CCCCC2)nc2[nH]nnc12
10 | 23.8 | – | – | C[C@H](CO)Nc1nc(OCc2cccc(F)c2F)nc2[nH]nnc12
11 | > 30 | > 30 | – | Fc1cccc(CSc2nc(N3CCNCC3)c3nn[nH]c3n2)c1F
12 | 2.29 | – | – | CC(C)(CO)Nc1nc(SCc2cccc(F)c2F)nc2[nH]nnc12
13 | 17.2 | 8.78 | – | COCCNc1nc(SCc2cccc(F)c2F)nc2[nH]nnc12
14 | 8.49 | 2.58 | – | CCCC(C)CSc1nc(N[C@H](C)CO)c2nn[nH]c2n1 (stereo not given in full)
15 | 5.28 | – | – | CC(C)CCCCSc1nc(N[C@H](C)CO)c2nn[nH]c2n1
16 | – | 2.37 | – | C[C@H](CO)Nc1nc(SCC2CCCC2)nc2[nH]nnc12

Row | IC50 [1] [µM] | IC50 [2] [µM] | IC50 [3] [µM] | SMILES
17 | 5.81 | – | – | OCCSc1nc(SCc2cccc(F)c2F)nc2[nH]nnc12
18 | > 30 | – | – | CN(C)c1nc(SCc2cccc(F)c2F)nc2[nH]nnc12
19 | 29.3 | – | – | CCCOCCSc1nc(N[C@H](C)CO)c2nn[nH]c2n1
20 | 8.66 | – | – | OCCNc1nc(SCc2cccc(F)c2F)nc2[nH]nnc12
21 | 7.14 | 2.09 | – | C[C@H](CCO)Nc1nc(SCc2cccc(F)c2F)nc2[nH]nnc12
22 | > 30 | > 30 | – | CN(C)CCNc1nc(SCc2cccc(F)c2F)nc2[nH]nnc12
23 | > 30 | 11.5 | – | CC(C)(C)OC(=O)N1CCN(c2nc(SCc3cccc(F)c3F)nc3[nH]nnc23)CC1
24 | – | > 30 | – | CCCNC(=O)CSc1nc(N[C@H](C)CO)c2nn[nH]c2n1
25 | 1.18 | – | – | C[C@H](CO)Nc1nc(SCCc2ccccc2)nc2[nH]nnc12
26 | 18.6 | – | – | OCCCNc1nc(SCc2cccc(F)c2F)nc2[nH]nnc12
27 | > 30 | – | – | C[C@H](CO)Nc1nc(SCc2cccc(F)c2F)nc2c1nnn2C
28 | – | 1.75 | – | C[C@@H](CO)Nc1nc(SCc2cccc(F)c2F)nc2[nH]nnc12
29 | – | 6.4 | – | Cc1ccc([C@H](NC2=NS(=O)(=O)N=C2Nc2ccc(C)c(C(=O)N(C)C)c2O)C(C)(C)C)o1
30 | – | > 30 | – | C[C@H](CO)Nc1nc(SC2CCCCC2)nc2[nH]nnc12
31 | 0.43 | – | 1.78 | CCCCCCSc1nc(N[C@H](C)CO)c2nn[nH]c2n1
32 | > 30 | – | – | C[C@H](CO)Nc1nc(Sc2ccccc2)nc2[nH]nnc12
